Data from article PMC4156305, “Structure Driven Design of Novel Human Ether-A-Go-Go-Related-Gene Channel (hERG1) Activators” (PLoS ONE, 2014).
“Also recorded” adds a separate entry of the source.

How the values were obtained:
Format in all cases: cell-based
[1] = target: T1, hERG1 E544L (Homo sapiens, UniProt Q12809, E544L); assay: Whole cell patch-clamp of hERG1 E544L mutant; conditions: 10 µM
T1 construct: expressed in transfected cells; host or cells: HEK 293
Experimental: (§1) Transfected HEK cells on glass cover slips were placed in a chamber mounted on a modified stage of an inverted microscope. The chamber was superfused at a rate of 2 mL/min with a normal external solution. The extracellular solution contained (in mM) NaCl 140, KCl 5.4, CaCl2 1, MgCl2 1, HEPES 5, glucose 5.5, pH 7.4, with NaOH. Micropipettes were pulled from borosilicate glass capillary tubes on a programmable horizontal puller (Sutter Instruments, Novato, CA). Standard patch-clamp methods were used to measure the whole cell currents of hERG1 mutants expressed in HEK 293 cells using the AXOPATCH 200B amplifier (Axon Instruments). Unless otherwise indicated, tail currents were recorded when the voltage was returned to −50 mV from +50 mV. Further details on electrophysiological methods are collected in Methods S1.
(§2) Electrophysiology Protocol:
(§3) The pipette solution contained the following (at mM concentration): KCl 10, K-aspartate 110, MgCl2 5, Na2ATP 5, EGTA 10, HEPES 5, and CaCl2 1. The solution was adjusted to pH 7.2 with KOH. The extracellular solution contained the following (at mM concentration): NaCl 140, KCl 5.4, CaCl2 1, MgCl2 1, HEPES 5, and glucose 5.5. The solution was adjusted to pH 7.4 with NaOH. For IKr measurements, the whole cell configuration of the patch clamp method was used. The series resistance was less than 7
(§4) MΩ. The data were sampled at 1 kHz. The holding potential was -80 mV. The activation of hERG tail currents was induced by depolarization to a range of potentials from +50 to -100 mV in 10 mV steps for 1 second. This was followed by repolarization to -100 mV for 1 second to record the tail currents.
(§5) -100 mV, a -120 mV 1 second pre-pulse was applied to completely close the hERG channels before subsequent depolarization. All of the tail currents reported in this manuscript represent dofetilide-sensitive currents. The inactivation of hERG was measured by a previously reported triple-pulse protocol5, 6. The holding potential was -80 mV. The hERG channel was first depolarized to +50 mV for 1 second. Recovery from inactivation was achieved using a short pulse (a 10 ms hyperpolarization) to -120 mV, followed by the application of test pulses from -100 to 0 mV for 1 second in 10 mV steps.
(§6) A voltage of -100 mV was selected because it was on the flat part of the inactivation-voltage relationship. The methods employed are identical to ones previously reported. […]

[2] = test system: fetal mouse ventricular myocytes; assay: Action potential recordings in neonatal (day 1) / fetal mouse ventricular myocytes; conditions: 20 µM
Experimental: Action potentials were recorded from neonatal (day 1) mouse ventricular myocytes as previously reported. Although IKr has little physiologic importance to the action potential of the adult rodent heart, we previously reported that IKr is the dominant repolarizing current in day 1 neonatal myocytes, with little or no IKs. Thus, these neonatal cells are well suited to assess the physiologic relevance of blockade of IKr to the action potential characteristics. In contrast, to address the possibility that compounds inadvertently interact with other channels, action potentials were recorded from adult cardiac myocytes. Myocytes on glass coverslips were placed in a chamber mounted on a modified stage of an inverted microscope.

[3] = target: T2, hERG1 (Homo sapiens, UniProt Q12809); assay: Whole cell patch-clamp of hERG1 currents in transfected HEK 293 cells; parameters: Inactivation ΔV0.3: unit not given here; conditions: for Deactivation Δλ/λcon: deactivation time constant relative to baseline; for Activation V1/2 (mV): shift in voltage-dependence of activation; for Inactivation ΔV0.3: shift in voltage-dependence of inactivation; for Amplitude I/Icon: tail current relative to baseline
T2 construct: expressed in transfected cells; host or cells: HEK 293
Experimental: as §1, §2, §3, §4, §5, §6

[4] = Conc. 2 µM, listed as MC-II-159c
[5] = Conc. 10 µM, listed as MC-I-153b
[6] = Conc. 50 µM, listed as MC-I-153b

Structure (SMILES)	Inactivation ΔV0.3 ([3]; Conc. 10 µM)	Deactivation Δλ/λcon ([3]; Conc. 10 µM)	Activation V1/2 (mV) ([3]; Conc. 10 µM)	Amplitude I/Icon ([3]; Conc. 10 µM)	Deactivation Δλ/λcon ([3]; Conc. 50 µM)	Activation V1/2 (mV) ([3]; Conc. 50 µM)	Inactivation ΔV0.3 ([3]; Conc. 50 µM)	Amplitude I/Icon ([3]; Conc. 50 µM)	further results
C[C@H](NCc1ccc(Br)cc1)C(=O)NC(=O)Nc1cc(C(F)(F)F)ccc1O [Compound 4]	shifts voltage dependence to hyperpolarized potentials	–	–	–	–	–	–	–	response in amplitude of the tail current in E544L versus WT [1]: markedly diminished; pharmacologic responses (shift in voltage-dependence of activation, slowing of deactivation) in E544L versus WT ([1]; listed as MC-II-159c): significantly and substantially less pharmacologic responses; also recorded: significantly and substantially reduced; upstroke of the action potential, overshoot potential and excitability threshold [2]: affected the upstroke of the action potential, the overshoot potential and the excitability threshold; lower drug concentration at which effects on deactivation were still manifest [3]: ~2 µM; Deactivation Δλ/λcon ([3]; Conc. 2 µM): 0.25±0.02; Deactivation Δλ/λcon [3, 4]: significantly prolonged deactivation; Activation V1/2 (mV) ([3]; Conc. 2 µM): −5±2 mV; Inactivation ΔV0.3 ([3]; Conc. 2 µM): −0.5±0.5; Amplitude I/Icon ([3]; Conc. 2 µM): 0.76±0.14; Amplitude I/Icon [3, 4]: 0.76; Deactivation Δλ/λcon ([3]; Conc. 20 µM): 3.1±1.6; Activation V1/2 (mV) ([3]; Conc. 20 µM): −33±14 mV; Inactivation ΔV0.3 ([3]; Conc. 20 µM): −4.5±1.5; Amplitude I/Icon ([3]; Conc. 20 µM): 0.6±0.07; Amplitude I/Icon ([3]; Conc. 20 µM, listed as MC-II-159c): 0.6
COCOc1ccc(C(F)(F)F)cc1NC(=O)NC(=O)[C@H](C)NS(=O)(=O)c1ccc([N+](=O)[O-])cc1 [Compound 15]	−11±2	−0.1±0.1	−3±3	0.7±0.12	–	–	–	–	Deactivation Δλ/λcon ([3]; Conc. 30 µM): −0.01±0.07; Activation V1/2 (mV) ([3]; Conc. 30 µM): 0±0 mV; Inactivation ΔV0.3 ([3]; Conc. 30 µM): −10±0; Amplitude I/Icon ([3]; Conc. 30 µM): 0.5±0.04
COCOc1ccc(C(F)(F)F)cc1NC(=O)NC(=O)[C@H](C)N [Compound 16]	–	−0.07±0.1	−7±2	0.6±0.06	0.003±0.14	−19±3	−27±2	0.3±0.02	Activation V1/2 (mV) [3, 5]: shifts V1/2 of activation to hyperpolarized potentials; Amplitude I/Icon [3, 5]: 0.6; Activation V1/2 (mV) [3, 6]: left shifted the V1/2 of activation; Amplitude I/Icon [3, 6]: 0.3
COCOc1ccc(C(F)(F)F)cc1NC(=O)NC(=O)[C@H](C)N(Cc1ccccc1)Cc1ccccc1 [Compound 17]	−1±0.6	0.07±0.08	−5±0.6	–	0.25±0.18	−2±0	+4±0	0.95±0.03	–
CN(C(=O)c1cccc(C(F)(F)F)c1)c1ccccc1 [Compound 18]	–	–	–	–	−0.2±0.05	3.3±0.3	−11.7±7.3	0.8±0.07	–
CN(C(=O)c1cc(C(F)(F)F)ccc1Cl)c1ccccc1 [Compound 19]	–	–	–	–	−0.2±0.08	1±3	−2±1	0.7±0.06	Activation V1/2 (mV) ([3]; Conc. 5 µM): 0 mV; Amplitude I/Icon ([3]; Conc. 5 µM): 0.9±0.1
